Reference: patent publication US9493486B2, “Diazaspirocycloalkane and azaspirocycloalkane” (Hoffmann-La Roche Inc., priority 2012, dated 2016)

Molecular target: ATX (human His-tagged) (Homo sapiens (Human), UniProt Q13822)
Experiment: Human ATX enzyme inhibition assay (fluorescence quenching, MR121 substrate)
Assay type: biochemical
Details: 30 nM ATX, 1 μM MR121 substrate, 30° C.
Text: Human ATX Enzyme Inhibition Assay
Assay working solutions were made as follows:

Row | IC50 [nM] | SMILES
1 | 59 | O=C(CCc1cc(Cl)cc(Cl)c1)N1CC2(CC(NS(=O)(=O)c3ccc4[nH]c(=O)oc4c3)C2)C1 [Example 3.3, 2-oxo-2,3-dihydro-benzooxazole-6-sulfonic acid {2-[3-(3,5-dichloro-phenyl)-propionyl]-2-aza-spiro[3.3]hept-6-yl}-amide]
2 | 129 | O=C(OCc1ccc(Cl)cc1)N1CCC2(CC1)CN(C(=O)c1ccc3[nH]nnc3c1)C2 [Example 1.02, 4-chlorobenzyl 2-(1H-benzo[d][1,2,3]triazole-5-carbonyl)-2,7-diazaspiro[3.5]nonane-7-carboxylate]
3 | 44 | O=C(NCc1cnn[nH]1)C1CC2(CCN(C(=O)OCc3cc(Cl)cc(Cl)c3)CC2)C1 [Example 12.32, 2-[(3H-[1,2,3]triazol-4-ylmethyl)-carbamoyl]-7-aza-spiro[3.5]nonane-7-carboxylic acid 3,5-dichloro-benzyl ester]
4 | 10 | O=C(OCc1ccc(OC(F)(F)F)cc1)N1CC2(CCN(C(=O)C3CCc4[nH]nnc4C3)CC2)C1 (stereo not shown) [Example 12.34, 4-(trifluoromethoxy)benzyl 7-(4,5,6,7-tetrahydro-1H-benzo[d][1,2,3]triazole-5-carbonyl)-2,7-diazaspiro[3.5]nonane-2-carboxylate]
5 | 120 | O=C(OCc1cc(F)cc(OC(F)(F)F)c1)N1CCC2(CCCN(C(=O)c3ccc4[nH]nnc4c3)C2)C1 (stereo not shown) [Example 1.20, 3-fluoro-5-(trifluoromethoxy)benzyl 7-(1H-benzo[d][1,2,3]triazole-5-carbonyl)-2,7-diazaspiro[4.5]decane-2-carboxylate]
6 | 2150 | O=C(NC1CC2(C1)CN(C(=O)OCc1cccc(C(F)(F)F)c1)C2)c1ccc2[nH]nnc2c1 [Example 12.19, 6-[(1H-benzotriazole-5-carbonyl)-amino]-2-aza-spiro[3.3]heptane-2-carboxylic acid 3-trifluoromethyl-benzyl ester]
7 | 605 | O=C(c1ccc2[nH]nnc2c1)N1CCC2(CCN(C(=O)c3cc4cc(Cl)ccc4[nH]3)C2)C1 (stereo not shown) [Example 6.6, (7-(1H-benzo[d][1,2,3]triazole-5-carbonyl)-2,7-diazaspiro[4.4]nonan-2-yl)(5-chloro-1H-indol-2-yl)methanone]
8 | 2.5 | O=C(OCc1ccc(OCC(F)(F)F)cc1F)N1CCC2(CC1)CN(C(=O)C1CCc3nn[nH]c3C1)C2 (stereo not shown) [Example 12.38, 2-fluoro-4-(2,2,2-trifluoroethoxy)benzyl 2-(4,5,6,7-tetrahydro-1H-benzo[d][1,2,3]triazole-6-carbonyl)-2,7-diazaspiro[3.5]nonane-7-carboxylate]
9 | 4980 | O=C(OCc1ccc(Cl)nc1)N1CCC2(CC1)CN(C(=O)c1ccc3[nH]nnc3c1)C2 [Example 12.05, (6-chloropyridin-3-yl)methyl 2-(1H-benzo[d][1,2,3]triazole-5-carbonyl)-2,7-diazaspiro[3.5]nonane-7-carboxylate]
10 | 17 | O=C(OCc1ccc(Cl)cc1Cl)N1CCC2(CC1)CN(C(=O)c1ccc3[nH]nnc3c1)C2 [Example 12.04, 2,4-dichlorobenzyl 2-(1H-benzo[d][1,2,3]triazole-5-carbonyl)-2,7-diazaspiro[3.5]nonane-7-carboxylate]
11 | 3930 | O=C(c1ccc2[nH]nnc2c1)N1CCC2(CCN(C(=O)c3cc4cc(Cl)ccc4o3)C2)C1 (stereo not shown) [Example 6.7, (7-(1H-benzo[d][1,2,3]triazole-5-carbonyl)-2,7-diazaspiro[4.4]nonan-2-yl)(5-chlorobenzofuran-2-yl)methanone]
12 | 23 | O=C(NCc1c[nH]nn1)N1CC2(CCN(C(=O)OCc3ccc(OC(F)(F)F)cc3)CC2)C1 [Example 14, [4-(Trifluoromethoxy)phenyl]methyl 2-((1H-triazol-4-ylmethyl)carbamoyl)-2,7-diazaspiro[3.5]nonane-7-carboxylate]
13 | 1640 | O=C(OCc1cncc(Br)c1)N1CCC2(CC1)CN(C(=O)c1ccc3[nH]nnc3c1)C2 [Example 12.09, (5-bromopyridin-3-yl)methyl 2-(1H-benzo[d][1,2,3]triazole-5-carbonyl)-2,7-diazaspiro[3.5]nonane-7-carboxylate]
